As a reminder, the IC50 is the point on the concentration scale where inhibition reaches its midpoint. A high value points to lower potency.

Our source for the IC50 and CLi values is ChEMBL document CHEMBL1133875, “1-(Arylpiperazinylamidoalkyl)-pyrimidones: orally active inhibitors of lipoprotein-associated phospholipase A(2)” (Bioorg Med Chem Lett, 2001).

Series [1] addresses T1, Platelet-activating factor acetylhydrolase (Homo sapiens, UniProt Q13093).
T1 sequence (Q13093 whole entry): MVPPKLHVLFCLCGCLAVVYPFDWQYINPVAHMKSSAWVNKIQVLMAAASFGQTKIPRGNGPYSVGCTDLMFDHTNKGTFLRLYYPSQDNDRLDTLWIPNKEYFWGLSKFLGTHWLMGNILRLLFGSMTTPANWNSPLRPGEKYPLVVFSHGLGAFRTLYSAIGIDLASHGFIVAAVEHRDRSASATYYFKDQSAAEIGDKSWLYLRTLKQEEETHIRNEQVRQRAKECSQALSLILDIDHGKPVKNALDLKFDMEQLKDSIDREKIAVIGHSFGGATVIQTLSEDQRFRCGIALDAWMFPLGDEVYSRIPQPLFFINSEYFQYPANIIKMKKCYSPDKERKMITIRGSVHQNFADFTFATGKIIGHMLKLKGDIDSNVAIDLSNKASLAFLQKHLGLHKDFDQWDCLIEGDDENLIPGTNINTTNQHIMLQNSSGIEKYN
Description: Inhibitory activity against human lipoprotein associated phospholipase A2 (Lp-PLA2).

A further series is filed under the species Homo sapiens. Description: Intrinsic clearance in human liver microsomes. The class given is ADME, Microsome. A general note: Microsomes from liver hold many membrane-bound enzymes, among them those of drug oxidation.
The species named for another series is Rattus norvegicus. As to the kind of experiment: Intrinsic clearance in rat liver microsomes. The class given is ADME, Microsome.

Bounds are passed on as bounds.

Consider `CN(C)c1ncc(Cc2cn(CC(=O)N3CCN(c4ccc(Cl)cc4)CC3)c(SCc3ccc(F)cc3)nc2=O)cn1`, for which, in series [1], the concentration for half-maximal inhibition (IC50) worked out at 29 nM. On to `Cc1ncc(Cc2cn(CC(=O)N3CCN(c4ccc(Cl)cc4)CC3)c(SCc3ccc(F)cc3)nc2=O)cn1`, for which the CLi came out at 7 mL/min/g in the series filed under Homo sapiens and 3 mL/min/g in the series listed under Rattus norvegicus. In series [1], this compound displayed an IC50 of 18 nM. In series [1], `Cn1cc(Cc2cn(CC(=O)N3CCN(c4ccc(Br)cc4)CC3)c(SCc3ccc(F)cc3)nc2=O)cn1` registered a half-inhibitory concentration (IC50) of 51 nM.

On to `O=C(Cn1cc(Cc2cnc(C3CC3)nc2)c(=O)nc1SCc1ccc(F)cc1)N1CCN(c2ccc(Cl)cc2)CC1`, for which the IC50 in series [1] amounted to 21 nM. The compound `O=C(Cn1cc(Cc2cncnc2)c(=O)nc1SCc1ccc(F)cc1)N1CCNCC1` yielded a concentration for half-maximal inhibition (IC50) in series [1] of 460 nM. For `O=C(Cn1cc(Cc2cncnc2)c(=O)nc1SCc1ccc(F)cc1)N1CCN(S(=O)(=O)c2ccccc2)CC1`, the IC50 in series [1] was found to be 260 nM.

For the compound `O=C(Cn1cc(Cc2cncnc2)c(=O)nc1SCc1ccc(F)cc1)N1CCN(Cc2ccccc2)CC1`, the half-maximal inhibitory concentration (IC50) in series [1] is 85 nM. Turning to `O=C(Cn1cc(Cc2cncnc2)c(=O)nc1SCc1ccc(F)cc1)N1CCN(C(=O)c2ccccc2)CC1`, the 50% inhibitory concentration (IC50) in series [1] was 1280 nM. Compound `CCCCCCCC/C=C/CCCCCCCCNC(=O)CCCn1cc(Cc2cncnc2)c(=O)nc1SCc1ccc(F)cc1` came in with a half-maximal inhibitory concentration (IC50) in series [1] of 0.4 nM. In series [1], `Cn1cc(Cc2cn(CCCC(=O)N3CCN(c4ccc(C(F)(F)F)cc4)CC3)c(SCc3ccc(F)cc3)nc2=O)cn1` registered an IC50 of 5 nM. `O=C(Cn1cc(Cc2cncnc2)c(=O)nc1SCc1ccc(F)cc1)N1CCN(c2ccc(C(F)(F)F)cc2)CC1` gave a concentration for half-maximal inhibition (IC50) in series [1] of 26 nM.

`O=C(Cn1cc(Cc2cncnc2)c(=O)nc1SCc1ccc(F)cc1)N1CCN(c2cncnc2)CC1` yielded a half-maximal inhibitory concentration (IC50) in series [1] of 410 nM.

Regarding `COc1ncc(Cc2cn(CCCC(=O)N3CCN(c4ccc(C(F)(F)F)cc4)CC3)c(SCc3ccc(F)cc3)nc2=O)cn1`, the IC50 in series [1] was determined as 2 nM. Still for that read-out and setting: in the case of `COc1ncc(Cc2cn(CCCC(=O)N3CCN(c4ccc(Cl)c(Cl)c4)CC3)c(SCc3ccc(F)cc3)nc2=O)cn1` it was 2 nM; in that of `Cn1cc(Cc2cn(CCCC(=O)N3CCN(c4ccc(Cl)c(Cl)c4)CC3)c(SCc3ccc(F)cc3)nc2=O)cnc1=O`, 9 nM.

As for `Cn1cc(Cc2cn(CC(=O)N3CCN(Cc4ccccc4)C(=O)C3)c(SCc3ccc(F)cc3)nc2=O)cn1`, in series [1], the IC50 amounted to 530 nM. As to `COc1ncc(Cc2cn(CC(=O)N3CCN(c4ccc(Cl)cc4)CC3)c(SCc3ccc(F)cc3)nc2=O)cn1`, the figures for the CLi in the series filed under Homo sapiens and in the series listed under Rattus norvegicus were 3 mL/min/g and 2 mL/min/g, respectively. The same compound registered a 50% inhibitory concentration (IC50) in series [1] of 20 nM. On to `Cn1cc(Cc2cn(CC(=O)N3CCN(c4ccc(Cl)cc4)CC3)c(SCc3ccc(F)cc3)nc2=O)cn1`, for which 44 nM corresponded to half-maximal inhibition in series [1] (IC50). In turn, `O=C(O)Cn1cc(Cc2cn(CC(=O)N3CCN(c4ccc(Cl)cc4)CC3)c(SCc3ccc(F)cc3)nc2=O)cnc1=O` displayed a concentration for half-maximal inhibition (IC50) in series [1] of 89 nM. For the compound `O=C(Cn1cc(Cc2cnc(C(F)(F)F)nc2)c(=O)nc1SCc1ccc(F)cc1)N1CCN(c2ccc(Cl)cc2)CC1`, the 50% inhibitory concentration (IC50) in series [1] turned out to be 69 nM. As for `O=C(Cn1cc(Cc2cncnc2)c(=O)nc1SCc1ccc(F)cc1)N1CCN(c2ccc(F)cc2)CC1`, in series [1], the midpoint of inhibition, the IC50, lay at 97 nM.

With `COc1ncc(Cc2cn(CC(=O)N3CCN(c4ccc(Cl)c(Cl)c4)CC3)c(SCc3ccc(F)cc3)nc2=O)cn1`, the CLi in the series listed under Homo sapiens is 7 mL/min/g; in the series filed under Rattus norvegicus, 2 mL/min/g. On to `Cn1cc(Cc2cn(CC(=O)N3CCN(c4ccc(Cl)cc4)CC3)c(SCc3ccc(F)cc3)nc2=O)cnc1=O`, for which the CLi in the series filed under Homo sapiens amounted to 4 mL/min/g; in the series listed under Rattus norvegicus, 3 mL/min/g. The compound further returned an IC50 in series [1] of 70 nM. In the case of `Cn1cc(Cc2cn(CCCC(=O)N3CCN(c4ccc(Cl)cc4)CC3)c(SCc3ccc(F)cc3)nc2=O)cn1`, half-maximal inhibition in series [1] (IC50) was put at 3 nM. Take `O=C(O)Cn1cc(Cc2cn(CCCC(=O)N3CCN(c4ccc(Cl)c(Cl)c4)CC3)c(SCc3ccc(F)cc3)nc2=O)cnc1=O`: the 50% inhibitory concentration (IC50) in series [1] is 9 nM. Turning to `COc1ncc(Cc2cn(CCCC(=O)N3CCN(c4ccc(Cl)cc4)CC3)c(SCc3ccc(F)cc3)nc2=O)cn1`, the results for the CLi in the series listed under Homo sapiens and in the series listed under Rattus norvegicus were above 50 mL/min/g and 19 mL/min/g, respectively. The compound also yielded an IC50 in series [1] of 8 nM.

For `CC(C)(C)c1ncc(Cc2cn(CC(=O)N3CCN(c4ccc(Cl)cc4)CC3)c(SCc3ccc(F)cc3)nc2=O)cn1`, in series [1], the IC50 was 34 nM. On to `O=C(Cn1cc(Cc2cncnc2)c(=O)nc1SCc1ccc(F)cc1)N1CCN(c2ccccn2)CC1`, for which 350 nM corresponded to half-maximal inhibition in series [1] (IC50).

`Cn1cc(Cc2cn(CC(=O)N3CCN(C4CCCCC4)CC3)c(SCc3ccc(F)cc3)nc2=O)cn1`: the half-inhibitory concentration (IC50) in series [1] was found to be 720 nM.

With `CCCCCCCCCCCCN(C)C(=O)Cn1cc(Cc2cnc(OC)nc2)c(=O)nc1SCc1ccc(F)cc1`, the IC50 in series [1] was found to be 1 nM.

In series [1], `CC(=O)c1ccc(N2CCN(C(=O)Cn3cc(Cc4cncnc4)c(=O)nc3SCc3ccc(F)cc3)CC2)cc1` yielded a half-inhibitory concentration (IC50) of 130 nM.

For the compound `O=C(Cn1cc(Cc2cnc(N3CCOCC3)nc2)c(=O)nc1SCc1ccc(F)cc1)N1CCN(c2ccc(Cl)cc2)CC1`, the figures for the CLi in the series listed under Homo sapiens and in the series listed under Rattus norvegicus were above 50 mL/min/g and 13 mL/min/g, respectively. Also, in series [1], the IC50 amounted to 10 nM.

`CCCCCCCCN1CCN(C(=O)Cn2cc(Cc3cnn(C)c3)c(=O)nc2SCc2ccc(F)cc2)CC1` had an IC50 in series [1] of 24 nM. Turning to `Cn1cc(Cc2cn(CC(=O)N3CCN(c4ccc(Cl)c(Cl)c4)CC3)c(SCc3ccc(F)cc3)nc2=O)cn1`, the CLi in the series listed under Homo sapiens was determined as 11 mL/min/g; in the series listed under Rattus norvegicus, 6 mL/min/g. The same compound registered an IC50 in series [1] of 12 nM. Turning to `O=C(Cn1cc(Cc2cncnc2)c(=O)nc1SCc1ccc(F)cc1)N1CCN(c2ccccc2)CC1`, inhibition in series [1] was half-maximal at 120 nM (IC50). In the case of `O=C(Cn1cc(Cc2cncnc2)c(=O)nc1SCc1ccc(F)cc1)N1CCN(c2ccccc2)C(=O)C1`, the half-inhibitory concentration (IC50) in series [1] came out at 6700 nM. Still for that read-out and setting: in the case of `O=C(Cn1cc(Cc2cncnc2)c(=O)nc1SCc1ccc(F)cc1)N1CCN(c2cccc(Cl)c2)CC1` it was 66 nM; in that of `COc1ccc(N2CCN(C(=O)Cn3cc(Cc4cncnc4)c(=O)nc3SCc3ccc(F)cc3)CC2)cc1`, 176 nM.
